Source: patent US20230406865A1, “CRYSTAL FORM OF FREE BASE OF INHIBITOR CONTAINING BICYCLIC RING DERIVATIVE AND PREPARATION METHOD AND APPLICATION OF CRYSTAL FORM” (SHANGHAI HANSOH BIOMEDICAL CO., LTD., priority 2020, published 2023)
pIC50: −log10 of the molar value.

Key:
[1] = Balb/C mouse pharmacokinetics, oral 5 mg/kg; format: in vivo, Balb/C mice; conditions: male, p.o. 5 mg/kg, plasma; for MRT: read-out: Average residence time MRT; for Cmax: read-out: Blood concentration Cmax; for AUC(0-t): read-out: Curve area AUC0-t; for AUC(0-inf): read-out: Curve area AUC0-∞; for half-life: read-out: Half-life t1/2 (converted); for Tmax: read-out: Peak time tmax
Summary of the method: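 Male Balb/C mice (6 per compound) were fasted overnight and dosed in 0.5% CMC-Na (1% Tween80) solution or suspension. EDTA-K2 plasma was sampled at 0, 0.5, 1, 2, 4, 6, 8 and 24 h. Compound levels were measured by LC/MS/MS after acetonitrile precipitation, and PK parameters were derived from the plasma profiles.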

Ba/F3 KIF5B-RET cells = molecular target: T1, Ba/F3 KIF5B-RET cells (Homo sapiens, UniProt P07949); experiment: Inhibition of proliferation of Ba/F3 KIF5B-RET cells (CellTiter-Glo); format: cell-based; conditions: 72 to 144 hours
T1 construct: fused on or other part: P33176 (Kinesin-1 heavy chain)
T1 sequence (P07949 whole entry, change not shown, the tested form may be a part): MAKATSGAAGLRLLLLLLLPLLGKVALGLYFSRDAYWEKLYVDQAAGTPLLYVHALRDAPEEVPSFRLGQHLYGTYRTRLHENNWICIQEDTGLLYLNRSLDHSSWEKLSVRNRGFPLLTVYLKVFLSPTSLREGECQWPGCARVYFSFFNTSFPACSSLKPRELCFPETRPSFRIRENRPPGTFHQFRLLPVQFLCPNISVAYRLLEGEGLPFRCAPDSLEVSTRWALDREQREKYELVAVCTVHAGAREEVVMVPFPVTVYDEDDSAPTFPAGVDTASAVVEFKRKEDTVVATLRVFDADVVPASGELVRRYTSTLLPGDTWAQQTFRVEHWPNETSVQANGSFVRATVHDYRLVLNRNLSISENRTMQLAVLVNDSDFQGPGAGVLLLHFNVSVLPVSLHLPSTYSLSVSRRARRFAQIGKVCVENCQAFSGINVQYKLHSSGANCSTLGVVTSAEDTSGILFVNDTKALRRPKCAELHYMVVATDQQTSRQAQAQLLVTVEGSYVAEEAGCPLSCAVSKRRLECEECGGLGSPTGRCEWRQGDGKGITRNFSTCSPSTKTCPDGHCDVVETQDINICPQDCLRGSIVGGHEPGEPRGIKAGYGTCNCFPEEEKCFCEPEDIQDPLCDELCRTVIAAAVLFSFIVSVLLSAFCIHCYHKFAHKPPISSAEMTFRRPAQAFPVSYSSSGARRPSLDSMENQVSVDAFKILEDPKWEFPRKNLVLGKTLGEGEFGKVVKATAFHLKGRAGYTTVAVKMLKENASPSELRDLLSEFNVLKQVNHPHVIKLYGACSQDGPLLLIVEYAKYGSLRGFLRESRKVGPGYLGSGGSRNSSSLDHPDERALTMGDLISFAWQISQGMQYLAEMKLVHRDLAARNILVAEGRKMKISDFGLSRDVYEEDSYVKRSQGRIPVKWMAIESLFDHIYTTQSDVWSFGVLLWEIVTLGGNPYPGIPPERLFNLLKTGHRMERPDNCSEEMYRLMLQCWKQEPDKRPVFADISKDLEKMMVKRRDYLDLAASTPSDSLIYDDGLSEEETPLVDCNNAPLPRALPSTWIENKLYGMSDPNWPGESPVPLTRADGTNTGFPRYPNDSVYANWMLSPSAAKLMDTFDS
Summary of the method: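 Cells plated overnight, then exposed to compound dilutions in DMSO/medium at 37° C, 5% CO2 for 72 to 144 hours. Viability read by CellTiter-Glo luminescence; IC50 from inhibition rates fitted by nonlinear regression.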

[2] = system: TT cells (MTC, RET C634W); experiment: Inhibition of proliferation of TT cells (CellTiter-Glo, 72 h); format: cell-based; conditions: Homo sapiens
Summary of the method: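 TT cells seeded overnight, then exposed to compound dilutions for 72 h at 37 °C, 5% CO2, with a solvent control. Viability read by CellTiter-Glo luminescence; IC50 from nonlinear regression of inhibition rate versus concentration.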

RET kinase = molecular target: T2, RET kinase (Homo sapiens, UniProt P07949); experiment: HTRF kinase activity inhibition, RET wild-type; format: biochemical; conditions: ATP at Km
T2 construct: purchased Carna 08-159
T2 sequence (P07949 29-1114): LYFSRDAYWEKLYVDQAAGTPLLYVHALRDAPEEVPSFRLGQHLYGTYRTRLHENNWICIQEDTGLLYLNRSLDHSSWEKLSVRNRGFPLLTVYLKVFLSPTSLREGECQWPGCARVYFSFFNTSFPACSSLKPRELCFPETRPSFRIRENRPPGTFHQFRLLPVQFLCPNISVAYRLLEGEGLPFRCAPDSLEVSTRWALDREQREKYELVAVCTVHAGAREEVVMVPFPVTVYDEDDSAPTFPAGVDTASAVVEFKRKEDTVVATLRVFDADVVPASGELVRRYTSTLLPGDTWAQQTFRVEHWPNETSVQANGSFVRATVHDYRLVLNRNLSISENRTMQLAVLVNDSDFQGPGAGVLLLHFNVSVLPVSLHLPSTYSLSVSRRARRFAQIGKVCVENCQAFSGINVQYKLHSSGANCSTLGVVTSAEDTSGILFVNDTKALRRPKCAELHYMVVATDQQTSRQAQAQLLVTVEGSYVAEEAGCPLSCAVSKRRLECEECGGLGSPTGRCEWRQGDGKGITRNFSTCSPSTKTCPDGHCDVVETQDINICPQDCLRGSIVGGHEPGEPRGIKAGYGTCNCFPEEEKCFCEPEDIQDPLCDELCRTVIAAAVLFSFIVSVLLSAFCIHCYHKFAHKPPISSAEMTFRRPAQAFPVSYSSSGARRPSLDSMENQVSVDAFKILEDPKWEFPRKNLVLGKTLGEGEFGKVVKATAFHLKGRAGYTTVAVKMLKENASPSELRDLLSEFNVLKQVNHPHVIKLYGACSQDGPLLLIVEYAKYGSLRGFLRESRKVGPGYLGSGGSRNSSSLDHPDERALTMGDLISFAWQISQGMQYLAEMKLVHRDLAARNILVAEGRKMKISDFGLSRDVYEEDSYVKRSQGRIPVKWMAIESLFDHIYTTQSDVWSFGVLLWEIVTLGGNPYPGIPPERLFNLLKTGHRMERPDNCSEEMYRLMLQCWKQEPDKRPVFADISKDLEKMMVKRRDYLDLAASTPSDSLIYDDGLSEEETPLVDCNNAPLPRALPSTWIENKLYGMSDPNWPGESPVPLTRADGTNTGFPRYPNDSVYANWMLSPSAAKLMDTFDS
Summary of the method: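 HTRF (KinEASE-TK) kinase assay with recombinant RET wild-type, RET V804M, RET V804L and KIF5B-RET enzymes plus ATP.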

RET M918T = molecular target: T3, RET M918T (Homo sapiens, UniProt P07949, M918T); experiment: HTRF kinase activity inhibition, RET M918T; format: biochemical; conditions: ATP at Km
T3 construct: purchased Carna 08-508
T3 sequence (P07949 29-1114 M918T): as the sequence (P07949 29-1114) above, with M890T counted along it
Excerpt: (§1) 2.2 Experimental Reagents: • RET enzyme was purchased from Carna Company, and the article number was 08-159; • RET M918T enzyme was purchased from Carna Company, and the article number was 08-508; • KIF5B-RET was purchased from SignalChem Company, the article number was R02-19FG-05; • CCDC6-RET was purchased from SignalChem Company, the article number was R02-19BG-05; • RET V804M enzyme was purchased from Thermofisher Company, and the article number was PV6223; • RET V804L enzyme was purchased from Thermofisher Company, and the article number was PV4397; • HTRF KinEASE-TK kit was purchased from Cisbio Company, and the article number was 62TK0PEC; • ATP was purchased from Thermofisher Company, and the article number was PV3227; • 384-well plate was purchased from PerkinElmer Company, and the article number was 6007290.
(§2) In this experiment, a homogeneous time-resolved fluorescence (HTRF) method was used for the detection of compounds on RET kinase activity.

KDR kinase = molecular target: T4, KDR kinase (Homo sapiens, UniProt P35968); experiment: HTRF kinase activity inhibition, KDR; format: biochemical; conditions: for pIC50: HTRF, ATP at Km; for Ratio (KDR/RET): KDR IC50 / RET IC50
T4 construct: purchased Carna 08-191
T4 sequence (P35968 20-1356): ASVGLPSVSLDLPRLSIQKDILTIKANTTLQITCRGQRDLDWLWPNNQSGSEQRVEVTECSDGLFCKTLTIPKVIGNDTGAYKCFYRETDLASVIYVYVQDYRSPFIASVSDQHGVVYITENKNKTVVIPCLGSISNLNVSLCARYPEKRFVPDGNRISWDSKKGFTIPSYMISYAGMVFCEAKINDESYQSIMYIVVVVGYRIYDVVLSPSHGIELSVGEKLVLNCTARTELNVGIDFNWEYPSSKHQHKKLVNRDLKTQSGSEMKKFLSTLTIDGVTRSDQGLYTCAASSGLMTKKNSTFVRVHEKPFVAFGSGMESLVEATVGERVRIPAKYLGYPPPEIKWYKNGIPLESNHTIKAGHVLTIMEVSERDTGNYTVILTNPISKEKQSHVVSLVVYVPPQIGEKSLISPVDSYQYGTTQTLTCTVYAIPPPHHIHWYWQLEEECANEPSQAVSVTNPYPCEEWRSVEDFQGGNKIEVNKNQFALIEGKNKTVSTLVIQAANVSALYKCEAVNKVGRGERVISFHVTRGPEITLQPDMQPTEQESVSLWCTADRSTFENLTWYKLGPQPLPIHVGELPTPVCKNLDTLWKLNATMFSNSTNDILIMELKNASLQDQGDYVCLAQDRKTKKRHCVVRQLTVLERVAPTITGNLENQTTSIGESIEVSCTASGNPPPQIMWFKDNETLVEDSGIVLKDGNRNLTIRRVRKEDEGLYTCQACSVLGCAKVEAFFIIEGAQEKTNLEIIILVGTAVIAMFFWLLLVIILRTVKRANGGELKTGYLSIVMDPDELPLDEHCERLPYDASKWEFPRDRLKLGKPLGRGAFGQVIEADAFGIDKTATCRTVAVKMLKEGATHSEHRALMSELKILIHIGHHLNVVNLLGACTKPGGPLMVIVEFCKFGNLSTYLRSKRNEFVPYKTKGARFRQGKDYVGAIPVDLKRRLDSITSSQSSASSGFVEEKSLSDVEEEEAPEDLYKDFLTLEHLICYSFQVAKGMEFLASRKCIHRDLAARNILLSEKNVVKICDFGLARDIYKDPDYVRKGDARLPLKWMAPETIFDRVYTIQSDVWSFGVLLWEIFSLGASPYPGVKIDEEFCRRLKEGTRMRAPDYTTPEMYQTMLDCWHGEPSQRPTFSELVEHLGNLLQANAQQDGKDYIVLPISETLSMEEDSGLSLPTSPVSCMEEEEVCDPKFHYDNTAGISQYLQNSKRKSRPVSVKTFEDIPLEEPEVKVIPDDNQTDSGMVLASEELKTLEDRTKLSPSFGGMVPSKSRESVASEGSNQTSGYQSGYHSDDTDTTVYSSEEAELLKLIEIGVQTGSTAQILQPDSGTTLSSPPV
Summary of the method: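 Inhibition of KDR kinase activity measured by homogeneous time-resolved fluorescence with a tyrosine-kinase KinEASE substrate kit and ATP.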

KIF5B-RET = molecular target: T5, KIF5B-RET (Homo sapiens, UniProt P07949); experiment: HTRF kinase activity inhibition, KIF5B-RET; format: biochemical; conditions: ATP at Km
T5 construct: purchased SignalChem R02-19FG-05; the other entry of the earlier key: KIF5B (P33176, Kinesin-1 heavy chain)
T5 sequence (P07949 with tags, fused parts or gaps): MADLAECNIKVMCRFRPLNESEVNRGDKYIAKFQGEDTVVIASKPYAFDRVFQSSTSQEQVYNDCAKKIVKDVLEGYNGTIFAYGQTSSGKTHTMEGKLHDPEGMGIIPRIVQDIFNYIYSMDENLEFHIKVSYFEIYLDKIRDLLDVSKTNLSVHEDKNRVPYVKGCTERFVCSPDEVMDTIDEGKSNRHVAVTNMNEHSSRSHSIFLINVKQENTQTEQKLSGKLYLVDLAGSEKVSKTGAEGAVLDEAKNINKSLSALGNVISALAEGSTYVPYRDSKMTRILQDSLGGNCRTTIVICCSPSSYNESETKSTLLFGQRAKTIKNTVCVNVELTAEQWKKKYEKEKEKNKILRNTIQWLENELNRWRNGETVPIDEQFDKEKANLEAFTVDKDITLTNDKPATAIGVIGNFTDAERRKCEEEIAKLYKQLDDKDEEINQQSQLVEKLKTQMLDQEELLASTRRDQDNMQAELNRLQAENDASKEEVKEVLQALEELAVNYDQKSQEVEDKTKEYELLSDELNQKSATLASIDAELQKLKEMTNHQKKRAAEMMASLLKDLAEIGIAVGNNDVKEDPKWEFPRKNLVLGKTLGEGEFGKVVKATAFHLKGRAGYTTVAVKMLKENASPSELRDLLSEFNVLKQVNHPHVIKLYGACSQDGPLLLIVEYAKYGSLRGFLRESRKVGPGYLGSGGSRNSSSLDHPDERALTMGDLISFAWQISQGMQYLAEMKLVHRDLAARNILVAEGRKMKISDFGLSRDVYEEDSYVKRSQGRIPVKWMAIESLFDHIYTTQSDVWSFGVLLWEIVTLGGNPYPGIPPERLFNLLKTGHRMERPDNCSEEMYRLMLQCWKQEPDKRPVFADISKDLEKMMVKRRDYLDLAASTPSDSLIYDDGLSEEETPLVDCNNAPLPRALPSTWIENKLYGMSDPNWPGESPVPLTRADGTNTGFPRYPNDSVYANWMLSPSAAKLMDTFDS
Excerpt: as §1, §2

RET V804M = molecular target: T6, RET V804M (Homo sapiens, UniProt P07949, V804M); experiment: HTRF kinase activity inhibition, RET V804M; format: biochemical; conditions: ATP at Km
T6 construct: purchased Thermofisher PV6223
T6 sequence (P07949 29-1114 V804M): as the sequence (P07949 29-1114) above, with V776M counted along it
Excerpt: as §1, §2

CCDC6-RET = molecular target: T7, CCDC6-RET (Homo sapiens, UniProt P07949); experiment: HTRF kinase activity inhibition, CCDC6-RET; format: biochemical; conditions: ATP at Km
T7 construct: purchased SignalChem R02-19BG-05; the other entry of the earlier key: CCDC6 (Q16204, Coiled-coil domain-containing protein 6)
T7 sequence (P07949 with tags, fused parts or gaps): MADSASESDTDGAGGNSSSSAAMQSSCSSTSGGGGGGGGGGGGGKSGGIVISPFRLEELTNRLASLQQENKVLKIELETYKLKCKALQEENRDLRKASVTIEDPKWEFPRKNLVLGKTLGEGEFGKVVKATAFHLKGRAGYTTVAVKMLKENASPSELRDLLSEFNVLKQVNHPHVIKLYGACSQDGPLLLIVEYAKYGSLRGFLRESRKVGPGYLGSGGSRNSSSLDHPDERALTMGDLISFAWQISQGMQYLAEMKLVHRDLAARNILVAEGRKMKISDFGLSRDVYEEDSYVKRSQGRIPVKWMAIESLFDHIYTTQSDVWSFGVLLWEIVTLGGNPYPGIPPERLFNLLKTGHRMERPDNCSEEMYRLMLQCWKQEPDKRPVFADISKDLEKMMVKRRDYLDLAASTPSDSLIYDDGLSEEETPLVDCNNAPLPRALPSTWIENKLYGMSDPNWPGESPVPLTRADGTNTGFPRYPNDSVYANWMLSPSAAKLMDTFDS
Excerpt: as §1, §2

RET V804L = molecular target: T8, RET V804L (Homo sapiens, UniProt P07949, V804L); experiment: HTRF kinase activity inhibition, RET V804L; format: biochemical; conditions: ATP at Km
T8 construct: purchased Thermofisher PV4397
T8 sequence (P07949 29-1114 V804L): as the sequence (P07949 29-1114) above, with V776L counted along it
Excerpt: as §1, §2

[3] = system: subcutaneous transplanted tumor of Ba/F3 KIF5B-RET cells; experiment: Tumor suppression on Ba/F3 KIF5B-RET transplanted tumor model; format: in vivo, BALB/c nude mice; conditions: 10 mg/kg oral twice a day
Description: Ba/F3 KIF5B-RET cells were removed from the cell bank, resuscitated and added to RPMI1640 medium (RPMI1640+10% FBS+1% Glu+1% P/S), then cultured in a CO2 incubator (incubator temperature was 37° C., CO2 concentration was 5%), and when the cell number expanded to the required number for in vivo inoculation, Ba/F3 KIF5B-RET cells were collected. The cells were counted with an automatic cell counter, resuspended with PBS according to the count results, made into a cell suspension (density was 2×10^7/mL), and placed in an ice box for use.
Female BALB/c nude mice aged 6-8 weeks were used, weighing about 18-22 g. Mice were reared in SPF animal room, and were reared in a single cage with 5 mice in each cage. All cages, bedding and water were sterilized at high temperature before use, and all animals were allowed to eat and drink freely. Nude mice were labeled with disposable universal ear tags for mice and rats before the start of the experiment, and the skin of the inoculation site was disinfected with 75% medical alcohol before inoculation. 0.1 mL (containing 2*10^6 cells) of Ba/F3 KIF5B-RET cells were inoculated subcutaneously on the right back of each mouse. Group administration was initiated when the tumor volume reached 60-200 mm^3, with 5 mice in each group. Each test compound was administered orally twice a day for 14 days. The tumor volume and the weight of mice were measured twice a week, and the tumor TGI (%) was calculated.
The tumor volume (mm^3) was calculated as V=0.5*D*d*d, where D and d were the long and short diameters of the tumor, respectively.
When there was no tumor regression, TGI (%)=[(1-(mean tumor volume at the end of the administration in a treatment group−mean tumor volume at the start of administration in the treatment group))/(mean tumor volume at the end of treatment in the solvent control group−mean tumor volume at the start of treatment in the solvent control group)]×100%.
When there was tumor regression, TGI (%)=[1-(mean tumor volume at the end of administration in a treatment group−mean tumor volume at the beginning of administration in the treatment group)/mean tumor volume at the beginning of administration in the treatment group]×100%.

pIC50 (KIF5B-RET)	pIC50 (RET V804M)	pIC50 (CCDC6-RET)	pIC50 (RET V804L)	Compound	MRT [1] [h]	Cmax [1] [ng/mL]	AUC(0-t) [1] [ng·h/mL]	AUC(0-inf) [1] [ng·h/mL]	half-life [1] [h]	Tmax [1] [h]	pIC50 (Ba/F3 KIF5B-RET cells)	pIC50 [2]	pIC50 (RET kinase)	pIC50 (RET M918T)	pIC50 (KDR kinase)	Ratio (KDR/RET) (KDR kinase)	Tumor volume (Mean ± SD) Day 0 ([3]; Day 0) [mm^3]	TGI (%) Day 14 ([3]; Day 14) [%]	Tumor volume (Mean ± SD) Day 14 ([3]; Day 14) [mm^3]
				COc1ccc(CN2C3CC2CN(c2ccc(-c4cc(C#CC(C)(C)O)cn5ncc(C#N)c45)cn2)C3)cn1 [Embodiment 8, 6-(3-Hydroxy-3-methylbut-1-yn-1-yl)-4-(6-(6-((6-methoxypyridin-3-yl)methyl)-3,6-diazabicyclo[3.1.1]heptan-3-yl)pyridin-3-yl)pyrazolo[1,5-a]pyridine-3-carbonitrile]	4.91	3710	21400	21500	3.37	0.5	7.92	7.77	9.32	9.17	7.80	34			
9.30	8.96	8.76	9.55	CC1(NC(=O)c2ncccc2Cl)CCN(c2ccc(-c3cc(C#CC4(O)COC4)cn4ncc(C#N)c34)cn2)CC1 [Embodiment 97, 3-Chloro-N-(1-(5-(3-cyano-6-((3-hydroxyoxetan-3-yl)ethynyl)pyrazolo[1,5-a]pyridin-4-yl)pyridin-2-yl)-4-methylpiperidin-4-yl)picolinamide]										9.43					
				COc1ccc(CN2C3CC2CN(c2ccc(-c4cc(N5CC(C(C)(C)O)C5)cn5ncc(C#N)c45)cn2)C3)cn1 [Embodiment 7, 6-(3-(2-Hydroxypropan-2-yl)azetidin-1-yl)-4-(6-(6-((6-methoxypyridin-3-yl)methyl)-3,6-diazabicyclo[3.1.1]heptan-3-yl)pyridin-3-yl)pyrazolo[1,5-a]pyridine-3-carbonitrile]	3.76	3280	13800	13800	2.18	0.5	7.89	7.96	9.16	8.97	7.96	16	100.80 ± 31.28	90.82	232.46 ± 133.65
